Measurements as given in patent US20250084097A1, “MACROCYCLIC AMIDE COMPOUNDS AND APPLICATION THEREOF” (Medshine Discovery Inc., priority 2021, published 2025).
pIC50: −log10 of the molar value. Like-named read-outs stand apart in the source and are kept apart here.

Columns and labels:
[1] = target: Ba/F3-FL-EGFR (L858R/T790M/C797S) (Homo sapiens, UniProt P00533, T790M/C797S/L858R, cells depend on it); assay: Cell proliferation inhibition, CellTiter-Glo; assay type: cell-based
Protocol: AdenosineTri-Phosphate (ATP) is an energy carrier shared by various life activities in nature, and is the smallest unit of energy storage and transfer. The CellTiter-Glo™ living cell assay kit uses luciferase as a detector, and luciferase requires the participation of ATP in the process of luminescence. CellTiter-Glo™ reagent is added to a cell culture medium, and the luminescence value is measured. The light signal is directly proportional to the amount of ATP in the system, and ATP is positively correlated with the number of living cells. Therefore, cell proliferation can be detected by detecting ATP content with the CellTiter-Glo kit. In this assay, the cell lines were Ba/F3-FL-EGFR (L858R/T790M/C797S), Ba/F3-FL-EGFR (WT), Ba/F3-FL-EGFR (L858R), Ba/F3-FL-EGFR (del19-S752-I759), Ba/F3-FL-EGFR (del19-E746-A750/T790M/C797S), Ba/F3-FL-EGFR (L858R/T790M), Ba/F3-FL-EGFR (del19-E746-A750/T790M), Ba/F3-TEL-EGFR (L858R/C797S), Ba/F3-FL-EGFR (del19-E746-A750/C797S) stably transfected cell lines.
The cell lines were cultured in an incubator at 37° C. and 5% CO2. The cells were periodically passaged, and cells in logarithmic growth phase were taken for plating.
a) DMSO was used to prepare a 10 mM solution of the compound to be tested, and then the compound to be tested was diluted to 0.3 or 1 mM with DMSO.
b) Preparation of 1000× compound storage plate (tube): DMSO was used to dilute by 3-fold gradient from the highest concentration to the lowest concentration, with a total of 9 concentrations.
c) Preparation of 20× compound working solution: 49 μL of cell culture medium was added to a flat-bottomed 96-well transparent drug plate, and 1 μL of compound was pipetted from the 1000× compound storage plate to the cell culture medium of the 96-well transparent drug plate. 1 μL of DMSO was added to the vehicle control. After adding compound or DMSO, the well content was mixed to uniform by aspiration and expelling with pipette.
a) Cells were stained with trypan blue and viable cells were counted. The cell viability rate was required to be above 90%.
b) 95 μL of cell suspension (2000 cells/well) was added to each well of the compound detection cell plate, and culture medium without cells (containing 0.1% DMSO) was added to the Min control well.
c) Dosing in the compound detection cell plate: 5 μL of 20× compound working solution was added to the cell culture plate. 5 μL of DMSO-cell culture mixture was added to the Max control. The final concentration of DMSO was 0.1%.
d) The culture plate was incubated in an incubator at 37° C., 5% CO2 for 72 hours.
Cell proliferation inhibition rate (Inhibition Rate) data were processed using the following formula:
Inhibition Rate (Inh %)=100−(RLUDrug−RLUMin)/(RLUMax−RLUMin)*100%.
The inhibition rates corresponding to different concentrations of compounds were calculated, and then GraphPad Prism software was used to draw the inhibition rate curve and the IC50 value was calculated.

[2] = target: T1, CYP1A2 (Homo sapiens, UniProt P05177); assay: Cytochrome P450 isoenzyme inhibition, human liver microsomes; assay type: in vitro ADME; conditions: read-out: Cytochrome P450 isoenzyme inhibitory concentration CYP1A2
T1 construct: from tissue; host or cells: human liver microsomes
Protocol: (§1) The purpose of this study was to determine the inhibitory effect of test compounds on the activity of human liver microsomal cytochrome P450 isoenzymes (CYP1A2, CYP2C9, CYP2C19, CYP2D6 and CYP3A4).
(§2) Working solutions (100×final concentration) with concentrations of 5.00, 1.50, 0.500, 0.150, 0.0500, 0.0150, and 0.00500 mM were prepared by gradient dilution of the test compound (10.0 mM), while working solutions of each positive inhibitor and its specific substrate mixtures of P450 isozymes (CYP1A2, CYP2C9, CYP2C19, CYP2D6, and CYP3A4) were prepared; human liver microsomes stored in a refrigerator below −60° C. were thawed on ice; after all the human liver microsomes were thawed, the human liver microsomes were diluted with Potassium phosphate buffer (PB) to prepare a certain concentration of working solution (0.253 mg/ml).
(§3) First, 20.0 μL of the substrate mixture was added to a reaction plate (20.0 μL of PB was added to the Blank well), then 158 μL of human liver microsomal working solution was added to the reaction plate, and the reaction plate was placed on ice for use; at this time, 2.00 μL of each concentration of the test compound (N=1) and specific inhibitor (N=2) were added to the corresponding wells, and to the group without inhibitor (test compound or positive inhibitor) was added the corresponding organic solvent as control samples (1:1 DMSO:MeOH for the control sample of the test compound, and 1:9 DMSO:MeOH for all the positive control samples); after pre-incubation in a water bath at 37° C. for 10 min, 20.0 μL of cofactor (NADPH) solution was added to the reaction plate, and the reaction plate was incubated in a water bath at 37° C. for 10 min; The reaction was terminated by adding 400 μL of pre-cooled acetonitrile solution (containing 200 ng/mL Tolbutamide and Labetalol internal standard); the reaction plate was shaken on a shaker for 10 min; then centrifuged at 4000 rpm at 4° C. for 20 min; 200 μL of the supernatant was added to 100 μL of water to dilute the samples; and the plate was sealed, shaken for 10 min to mix well, and then analyzed by LC/MS/MS.
(§4) The rate of production of metabolites of each probe substrate was used to reflect the activity of each CYP isozyme. The activity of each isozyme in the solvent control incubation system without test article or positive inhibitor was set to be 100%, and the rate of production of metabolites of the probe substrate with different concentrations of test article or positive inhibitor was divided by the rate of production of metabolites of the solvent control samples, and then multiplied by 100% as the percentage of residual activity of each isozyme. The IC50 values of the test article and each positive inhibitor were calculated by nonlinear regression analysis using three or four parameters in XL fit software with the percentage of residual activity as the vertical coordinate and the inhibitor concentration as the horizontal coordinate. The IC50 values were labeled as “>50 μM” when the IC50 fitted by XL fit software was greater than the highest administered concentration (50 μM) or when the IC50 could not be fitted.

[3] = target: T2, CYP2D6 (Homo sapiens, UniProt P10635); assay: as above; assay type: in vitro ADME; conditions: read-out: Cytochrome P450 isoenzyme inhibitory concentration CYP2D6
T2 construct: from tissue; host or cells: human liver microsomes
Protocol: as §1, §2, §3, §4

[4] = target: T3, CYP3A4 (Homo sapiens, UniProt P08684); assay: as above; assay type: in vitro ADME; conditions: read-out: Cytochrome P450 isoenzyme inhibitory concentration CYP3A4
T3 construct: from tissue; host or cells: human liver microsomes
Protocol: as §1, §2, §3, §4

[5] = 72 hours, read-out: Cell half-maximal inhibition concentration IC50 Ba/F3-FL-EGFR (L858R/T790M/C797S)

Chain of Ba/F3-FL-EGFR (L858R/T790M/C797S) (P00533 whole entry T790M/C797S/L858R): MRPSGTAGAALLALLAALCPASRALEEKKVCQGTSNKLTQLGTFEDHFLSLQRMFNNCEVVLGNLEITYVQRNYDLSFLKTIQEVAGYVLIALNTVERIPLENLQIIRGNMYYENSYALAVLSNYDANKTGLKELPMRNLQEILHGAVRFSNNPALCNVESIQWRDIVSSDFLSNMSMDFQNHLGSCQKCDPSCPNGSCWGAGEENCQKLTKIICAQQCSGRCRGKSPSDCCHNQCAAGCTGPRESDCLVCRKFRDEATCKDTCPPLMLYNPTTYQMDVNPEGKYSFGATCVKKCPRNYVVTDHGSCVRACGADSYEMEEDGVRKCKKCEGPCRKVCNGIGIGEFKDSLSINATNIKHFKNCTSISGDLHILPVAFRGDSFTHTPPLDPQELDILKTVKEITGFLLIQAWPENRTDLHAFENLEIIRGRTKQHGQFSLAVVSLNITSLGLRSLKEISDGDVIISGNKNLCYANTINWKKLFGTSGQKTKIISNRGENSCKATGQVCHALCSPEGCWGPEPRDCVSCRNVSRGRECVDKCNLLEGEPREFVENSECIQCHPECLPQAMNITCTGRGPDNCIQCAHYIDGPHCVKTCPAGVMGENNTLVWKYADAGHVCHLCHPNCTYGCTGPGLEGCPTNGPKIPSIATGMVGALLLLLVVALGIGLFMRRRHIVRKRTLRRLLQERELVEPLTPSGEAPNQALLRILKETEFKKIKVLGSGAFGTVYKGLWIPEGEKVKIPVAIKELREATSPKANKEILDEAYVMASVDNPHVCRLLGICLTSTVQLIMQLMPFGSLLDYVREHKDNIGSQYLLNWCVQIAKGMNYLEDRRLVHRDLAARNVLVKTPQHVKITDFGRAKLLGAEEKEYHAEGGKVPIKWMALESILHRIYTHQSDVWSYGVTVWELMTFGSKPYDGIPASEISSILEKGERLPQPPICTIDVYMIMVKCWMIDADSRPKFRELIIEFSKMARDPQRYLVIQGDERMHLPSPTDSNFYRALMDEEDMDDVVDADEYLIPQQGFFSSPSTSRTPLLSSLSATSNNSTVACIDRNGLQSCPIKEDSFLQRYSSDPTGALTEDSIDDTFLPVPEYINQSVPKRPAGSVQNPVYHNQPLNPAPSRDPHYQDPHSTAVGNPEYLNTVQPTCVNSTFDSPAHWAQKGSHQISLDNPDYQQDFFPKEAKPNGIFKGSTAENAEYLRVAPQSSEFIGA
T3 sequence (P08684 whole entry): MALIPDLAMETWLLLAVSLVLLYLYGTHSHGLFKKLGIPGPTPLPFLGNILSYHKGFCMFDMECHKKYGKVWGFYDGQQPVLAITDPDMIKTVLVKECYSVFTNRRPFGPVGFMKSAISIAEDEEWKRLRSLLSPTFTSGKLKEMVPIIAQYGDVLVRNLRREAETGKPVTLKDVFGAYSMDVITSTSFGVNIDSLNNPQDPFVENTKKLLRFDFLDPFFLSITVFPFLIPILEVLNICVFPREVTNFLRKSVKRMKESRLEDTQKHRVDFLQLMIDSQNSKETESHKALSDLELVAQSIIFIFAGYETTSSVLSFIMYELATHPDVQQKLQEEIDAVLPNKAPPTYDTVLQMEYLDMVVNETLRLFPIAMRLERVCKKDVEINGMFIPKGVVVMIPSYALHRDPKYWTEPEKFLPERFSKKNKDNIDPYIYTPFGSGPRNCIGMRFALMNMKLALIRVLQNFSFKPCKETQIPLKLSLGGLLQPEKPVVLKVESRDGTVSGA
T1 sequence (P05177 whole entry): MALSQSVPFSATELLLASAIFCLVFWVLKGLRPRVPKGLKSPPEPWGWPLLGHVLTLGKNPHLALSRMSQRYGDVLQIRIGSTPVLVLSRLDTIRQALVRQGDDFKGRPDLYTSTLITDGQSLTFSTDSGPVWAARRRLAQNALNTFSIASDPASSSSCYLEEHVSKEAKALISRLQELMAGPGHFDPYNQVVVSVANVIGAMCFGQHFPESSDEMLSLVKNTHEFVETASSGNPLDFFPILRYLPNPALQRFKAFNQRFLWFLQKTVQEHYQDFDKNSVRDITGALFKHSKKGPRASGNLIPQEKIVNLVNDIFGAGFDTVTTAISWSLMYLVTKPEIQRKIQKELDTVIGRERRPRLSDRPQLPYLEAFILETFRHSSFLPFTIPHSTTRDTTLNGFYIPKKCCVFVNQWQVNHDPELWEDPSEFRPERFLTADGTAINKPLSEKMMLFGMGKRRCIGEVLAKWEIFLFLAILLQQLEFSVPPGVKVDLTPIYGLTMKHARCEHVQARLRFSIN
T2 sequence (P10635 whole entry): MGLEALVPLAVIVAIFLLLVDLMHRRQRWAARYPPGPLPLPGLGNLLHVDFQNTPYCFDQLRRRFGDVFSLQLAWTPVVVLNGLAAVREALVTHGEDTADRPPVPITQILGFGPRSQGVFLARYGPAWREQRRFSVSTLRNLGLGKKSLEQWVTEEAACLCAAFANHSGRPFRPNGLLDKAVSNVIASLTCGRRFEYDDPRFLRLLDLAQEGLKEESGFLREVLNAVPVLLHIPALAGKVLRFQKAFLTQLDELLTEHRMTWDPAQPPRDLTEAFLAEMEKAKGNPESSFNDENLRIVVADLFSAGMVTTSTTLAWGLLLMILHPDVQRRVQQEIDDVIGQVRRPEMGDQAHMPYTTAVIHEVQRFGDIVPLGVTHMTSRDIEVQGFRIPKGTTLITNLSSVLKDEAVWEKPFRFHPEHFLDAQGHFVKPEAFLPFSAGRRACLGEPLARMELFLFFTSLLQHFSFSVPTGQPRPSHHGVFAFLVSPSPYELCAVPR

Row | SMILES | GI50 [1, 5] [nM] | pIC50 [2] | pIC50 [3] | pIC50 [4] | GI50 ([1]; read-out: Cell half-maximal inhibition concentration IC50 Ba/F3-FL-EGFR (L858R/T790M/C797S), 72 hours) [nM]
1 | Cc1cc2cc(n1)-c1cnn(C)c1OC[C@H]1CC[C@H](C1)CN1/C(=N/C2=O)Nc2ccc(N=S(C)(C)=O)cc21 (single isomer, unassigned) [WX-027A] | 8.6 | < 4.30 | < 4.30 | 4.70 | –
2 | Cc1cc2cc(n1)-c1cnn(C)c1OCCC[C@@H](C)CN1/C(=N/C2=O)Nc2ccc(N=S3(=O)CCCC3)cc21 [WX-010 (trifluoroacetate)] | 2.8 | – | – | – | –
3 | Cc1cc2cc(n1)-c1cnn(C)c1OCCC[C@@H](C)CN1/C(=N/C2=O)Nc2ccc(N=S3(=O)CCOCC3)cc21 [WX-013] | – | – | – | – | 4.3
4 | Cc1cc2cc(n1)-c1cnn(C)c1OCCC[C@@H](C)CN1/C(=N/C2=O)Nc2ccc(N=S(C)(C)=O)c(Cl)c21 [WX-019] | 5.7 | < 4.30 | < 4.30 | < 4.30 | –
